From US12458647B2, “Macrocyclic derivative and use thereof” (Guangzhou Joyo Pharmatech Co., Ltd., priority 2022, dated 2025)

How the values were obtained:
[1] = In vitro determination of whole blood to plasma concentration ratios, mouse; format: in vitro ADME; settings: CD-1 mouse whole blood, 1 μM, 37° C., 60 minutes
Experimental: (1) Fresh mouse and human whole blood (n≥3 for number of individual animals and n≥2 for number of individual humans) were collected in blood collection tubes containing EDTAK2 anticoagulant. Whole blood samples had to be mixed well and stored at 2-8° C. or on wet ice before use. They were used within 36 hours of whole blood collection. Blank whole blood was centrifuged at 2,000×g for 15 minutes at room temperature to obtain blank plasma. The plasma status was checked and hemolyzed plasma samples could not be used.
(2) The hematocrit (the percentage content of red blood cells in whole blood) was determined by centrifugation of whole blood samples in microhematocrit centrifuge tubes.
(3) Diclofenac (all species), chlorthalidone (mouse) or chloroquine (human) were used as control compounds.
(4) ACN solution containing 2% DMSO with a final concentration of 1 μM of the test compound was added to blank whole blood samples, and three parallel treatments were performed. The final content of the organic phase in the system should not exceed 0.5% (the content of DMSO should not exceed 0.1%). A certain volume of the drug-containing whole blood sample was pipetted to the sample receiving plate (three replicates), an equal volume of blank plasma was added, and mixed well to obtain the T0 sample.
(5) The whole blood sample containing the test compound was incubated at 37° C. with shaking for 60 minutes.
(6) After the end of incubation, a certain volume of whole blood samples containing the drug was pipetted to the sample receiving plate (three replicates) as T60-whole blood samples.
(7) The remaining whole blood samples were centrifuged at 2,000×g for 15 minutes in a 37° C. centrifuge to obtain plasma samples. A certain volume of plasma was pipetted to the sample receiving plate (three replicates) as T60-plasma samples.
(8) During sample treatment, all samples were equilibrated with the matrix (i.e., blank whole blood or blank plasma of the same volume was added) and mixed well.
(9) 1-fold volume of pure water was added to the equilibrated sample, and then a certain volume of stop solution containing internal standard compound was added to terminate the reaction.
(10) The analytes and control compounds in the samples were determined by liquid chromatography-tandem mass spectrometry (LC-MS/MS) method. The ratio of analyte peak area to internal standard peak area was used to represent the concentration in the sample.
See Table 7 for the experimental results. Wherein KB/P represents the concentration ratio of the compound in whole blood and plasma. KE/P represents the concentration ratio of the compound in red blood cells and plasma, and recovery (%) represents the recovery of the compound in whole blood.

[2] = Pharmacokinetic study in rats; format: in vivo; settings: male SD rats; for AUC0-last / Cl / T1/2 / Vd / Cmax / TMax: whole blood
Experimental: To evaluate the pharmacokinetic behavior of the compounds of the present disclosure in male SD rats.
(§1) The compounds to be tested were dissolved in the vehicle (5% DMSO/10% solutol/85% water). Four male SD rats were divided into 2 groups, with 2 rats in each group. Group 1 rats were administered a single intravenous bolus injection (i.v.) of the compounds at a dose of 1 mg/kg. Group 2 rats were administered a single dose of the compounds by gavage (p.o.) at a dose of 10 mg/kg. Whole blood samples were collected at 0.083 (intravenous bolus group only), 0.25, 0.5, 1, 2, 4, 8 and 24 hours after dosing. The LC-MS/MS method was used to determine the concentration of the test compound in whole blood samples.

[3] = Pharmacokinetic study in Beagle dogs; format: in vivo; settings: male Beagle dogs; for AUC0-last / Cl / T1/2 / Vd / Cmax / TMax: whole blood
Experimental: To evaluate the pharmacokinetic behavior of the compounds of the present disclosure in male Beagle dogs.
as §1, with “male beagle dogs” for “male SD rats”, “2 groups of 2.” for “2 groups, with 2 rats in each group.”, “1 animals” for “1 rats”, “2 animals” for “2 rats”, “of 5” for “of 10”

SMILES | KB/P (concentration ratio of the compound in whole blood and plasma) [1] | KE/P (concentration ratio of the compound in red blood cells and plasma) [1] | Recovery (%) of the compound in whole blood [1] [%] | AUC0-last ([2]; i.v. 1 mg/kg) [µM·h] | Cl ([2]; i.v. 1 mg/kg) [mL/min/kg] | T1/2 ([2]; i.v. 1 mg/kg) [h] | Vd ([2]; i.v. 1 mg/kg) [L/kg] | F(%) ([2]; p.o. 10 mg/kg) | AUC0-last ([2]; p.o. 10 mg/kg) [µM·h] | Cmax ([2]; p.o. 10 mg/kg) [nM] | T1/2 ([2]; p.o. 10 mg/kg) [h] | TMax ([2]; p.o. 10 mg/kg) [h] | AUC0-last ([3]; i.v. 1 mg/kg) [µM·h] | Cl ([3]; i.v. 1 mg/kg) [mL/min/kg] | T1/2 ([3]; i.v. 1 mg/kg) [h] | Vd ([3]; i.v. 1 mg/kg) [L/kg] | F(%) ([3]; p.o. 5 mg/kg) | AUC0-last ([3]; p.o. 5 mg/kg) [µM·h] | Cmax ([3]; p.o. 5 mg/kg) [nM] | T1/2 ([3]; p.o. 5 mg/kg) [h] | other results
CCn1c(-c2cc(N3CCN(C)CC3)cnc2C(C)OC)c2c3cc(ccc31)-c1csc(n1)CC(NC(=O)C1C(C)C1C)C(=O)N1NC(C(=O)OCC(C)(C)C2)C2CC1C2 (single isomer, unassigned) [Compound 6A] | 5.3 | 9.4 | 101.5 | 4.125 | 4.6 | 5.7 | 1.9 | 38 | 15.213 | 1620 | 6.1 | 1.5 | 7.91 | 1.9 | 24.5 | 3.8 | 22 | 8.72 | 472 | 22.4 | TMax ([3]; p.o. 5 mg/kg): 1.5 h
CCn1c(-c2cc(N3CCN(C)CC3)cnc2C(C)OC)c2c3cc(ccc31)-c1csc(n1)CC(NC(=O)C1CC1C)C(=O)N1NC(C(=O)OCC(C)(C)C2)C2CC1C2 (single isomer, unassigned) [Compound 7A] | 5.1 | 8.1 | 97.3 | 4.95 | 3.6 | 8.5 | 2.5 | 34.2 | 17.069 | 1460 | 7.3 | 4.0 | 4.712 | 4.2 | 10.3 | 3.0 | 33.2 | 7.632 | 618 | 12.0 | TMax ([3]; p.o. 5 mg/kg): 1.0 h
